The text below walks through data of patent US10399948B2, “Negative allosteric modulators of metabotropic glutamate receptor 3” (Vanderbilt University, priority 2015, dated 2019).

The target of one assay is rat mGlu3 (Rattus norvegicus (Rat), UniProt P31422). The assay can be described thus: mGlu3 Ca2+ flux assay. The assay is classed as cell-based. The conditions noted are these: for IC50: NAM, glutamate EC80, >10,000 = decrease without plateau, >30,000 = no measurable activity; for remaining activity at 30 µM: response at 30 μM test compound as percentage of maximal response to glutamate, read-out: rat mGlu3 Glu max (%). How it is done: Gα15/TREx cells stably expressing rat mGlu3 were plated in black-walled, clear-bottomed, poly-D-lysine coated 384-well plates in 20 μL of assay medium (DMEM containing 10% dialyzed FBS, 20 mM HEPES, 25 ng/mL tetracycline, 100 units/mL penicillin/streptomycin plus 250 ng/mL Fungizone, and 1 mM sodium pyruvate) at a density of 15K cells/well. The cells were grown overnight at 37° C. in the presence of 5% CO2. […] Dye was removed, 20 μL of assay buffer was added, and the plate was incubated for 10 minutes at room temperature.
(§1) Ca^2+ flux was measured using the Functional Drug Screening System (FDSS7000, Hamamatsu, Japan). After establishment of a fluorescence baseline for about 3 seconds, the compounds of the present invention were added to the cells, and the response in cells was measured. 2.3 minutes later an EC20 concentration of the mGlu3 receptor agonist glutamate was added to the cells, and the response of the cells was measured for 1.9 minutes; an EC80 concentration of agonist was added and readings taken for an additional 1.7 minutes. All test compounds were dissolved and diluted to a concentration of 10 mM in 100% DMSO. Compounds were then serially diluted 1:3 in DMSO into 10 point concentration response curves, transferred to daughter plates, and further diluted into assay buffer to a 2× stock. Calcium fluorescence measures were recorded as fold over basal fluorescence; raw data was then normalized to the maximal response to glutamate.
(§2) The raw data file containing all time points was used as the data source in the analysis template. This was saved by the FDSS as a tab-delimited text file. Data were normalized using a static ratio function (F/F0) for each measurement of the total 360 values per well divided by each well's initial value. Data were then reduced to peak amplitudes (Max−Initial Min) using a time range that starts approximately 3 seconds prior to the glutamate EC80 addition and continues for approximately 90 seconds. This is sufficient time to capture the peak amplitude of the cellular calcium response. Individual amplitudes were expressed as % EMax by multiplying each amplitude by 100 and then dividing the product by the mean of the amplitudes derived from the glutamate ECMax-treated wells. EC50 values for test compounds were generated by fitting the normalized values versus the log of the test compound concentration (in mol/L) using a 4 parameter logistic equation where none of the parameters were fixed. Each of the three values collected at each concentration of test compound were weighted evenly.
(Calcium flux is commonly read through the fluorescence of an indicator in the cells.)

Another assay addresses rat mGlu2 (Rattus norvegicus (Rat), UniProt P31421). The assay can be described thus: mGlu2 Ca2+ flux assay. The assay is classed as cell-based. Conditions: NAM, glutamate EC80; >30,000 = no measurable activity. How it is done:
Gα15 HEK293 cells stably expressing rat mGlu2 were plated in black-walled, clear-bottomed, poly-D-lysine coated 384-well plates in 20 μL of assay medium (DMEM containing 10% dialyzed FBS, 20 mM HEPES, and 1 mM sodium pyruvate) at a density of 12K cells/well. The cells were grown overnight at 37° C. in the presence of 5% CO2. The next day, medium was removed and the cells incubated with 20 μL of […] Fluo-4, AM prepared as a 2.3 mM stock in DMSO and mixed in a 1:1 ratio with 10% (w/v) pluronic acid F-127 and diluted in assay buffer (Hank's balanced salt solution, 20 mM HEPES, and 2.5 mM probenecid) for 45 minutes at 37° C. Dye was removed, 20 μL of assay buffer was added, and the plate was incubated for 5 minutes at room temperature.
as §1, with “mGlu2” for “mGlu3”
as §2, with “ECMax” for “EMax”, “IC50” for “EC50”

Sequence of rat mGlu2 (P31421 19-872): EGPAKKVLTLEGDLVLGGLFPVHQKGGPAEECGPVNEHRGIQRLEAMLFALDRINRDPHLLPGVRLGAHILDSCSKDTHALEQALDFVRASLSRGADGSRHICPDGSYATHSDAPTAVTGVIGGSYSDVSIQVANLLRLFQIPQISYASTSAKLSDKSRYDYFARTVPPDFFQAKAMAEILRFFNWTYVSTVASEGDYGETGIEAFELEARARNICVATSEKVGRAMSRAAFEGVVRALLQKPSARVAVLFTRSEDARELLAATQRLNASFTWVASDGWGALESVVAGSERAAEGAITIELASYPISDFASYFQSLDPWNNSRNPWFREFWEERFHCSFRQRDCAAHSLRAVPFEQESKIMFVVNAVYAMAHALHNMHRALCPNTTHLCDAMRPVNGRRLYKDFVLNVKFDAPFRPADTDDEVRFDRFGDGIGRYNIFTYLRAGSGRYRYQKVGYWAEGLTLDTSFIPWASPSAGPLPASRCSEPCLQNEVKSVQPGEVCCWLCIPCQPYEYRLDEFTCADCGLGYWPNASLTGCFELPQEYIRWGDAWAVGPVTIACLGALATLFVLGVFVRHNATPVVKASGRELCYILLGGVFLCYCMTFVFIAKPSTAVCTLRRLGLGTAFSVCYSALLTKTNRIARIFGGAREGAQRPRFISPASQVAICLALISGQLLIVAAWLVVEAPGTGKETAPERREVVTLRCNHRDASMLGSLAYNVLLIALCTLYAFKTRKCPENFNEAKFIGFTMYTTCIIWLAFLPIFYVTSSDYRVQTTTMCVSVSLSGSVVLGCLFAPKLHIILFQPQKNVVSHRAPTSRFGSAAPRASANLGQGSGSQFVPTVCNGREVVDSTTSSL
Sequence of rat mGlu3 (P31422 23-879): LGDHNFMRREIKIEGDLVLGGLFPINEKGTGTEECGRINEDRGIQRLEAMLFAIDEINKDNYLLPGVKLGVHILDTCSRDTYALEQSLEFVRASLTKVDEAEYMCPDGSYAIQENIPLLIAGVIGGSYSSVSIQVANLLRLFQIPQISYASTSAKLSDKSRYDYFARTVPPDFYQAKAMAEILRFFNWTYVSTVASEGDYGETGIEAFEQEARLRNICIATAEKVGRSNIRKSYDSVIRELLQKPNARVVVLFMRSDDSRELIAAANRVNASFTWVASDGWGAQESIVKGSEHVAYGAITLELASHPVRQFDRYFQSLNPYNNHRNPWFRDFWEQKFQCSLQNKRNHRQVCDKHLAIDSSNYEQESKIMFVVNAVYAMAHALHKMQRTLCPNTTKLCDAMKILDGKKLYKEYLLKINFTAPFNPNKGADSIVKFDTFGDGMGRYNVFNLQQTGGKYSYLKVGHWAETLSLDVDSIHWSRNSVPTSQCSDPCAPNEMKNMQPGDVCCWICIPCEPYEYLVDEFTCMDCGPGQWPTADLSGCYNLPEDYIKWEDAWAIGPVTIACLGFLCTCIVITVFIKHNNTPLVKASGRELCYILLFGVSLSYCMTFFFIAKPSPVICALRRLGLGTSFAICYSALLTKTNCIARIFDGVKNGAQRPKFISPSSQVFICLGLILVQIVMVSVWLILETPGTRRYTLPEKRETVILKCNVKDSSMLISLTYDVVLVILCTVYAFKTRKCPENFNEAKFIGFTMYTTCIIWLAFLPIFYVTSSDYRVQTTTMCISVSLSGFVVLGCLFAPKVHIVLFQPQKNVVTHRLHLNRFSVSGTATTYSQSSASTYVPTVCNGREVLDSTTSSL

In the case of `O=c1cc(OCCOCc2ccccc2)ccn1-c1ccc(F)cc1` [W, 4-(2-(Benzyloxy)ethoxy)-1-(4-fluorophenyl)pyridin-2(1H)-one], on rat mGlu3, inhibition was half-maximal at 13 µM (IC50) and the remaining activity at 30 µM came to 14.5%.

For `O=c1cc(OCCOc2ccccc2)ccn1-c1ccccn1` [Compound 11, 4-(2-phenoxyethoxy)-2H-[1,2′-bipyridin]-2-one], the 50% inhibitory concentration (IC50) at rat mGlu2 and against rat mGlu3 was greater than 30 µM in each case.

At rat mGlu3, `O=c1cc(OCCOC2CCCC2)ccn1-c1ccc(F)cc1` [Compound 6, 4-(2-(cyclopentyloxy)ethoxy)-1-(4-fluorophenyl)pyridin-2(1H)-one] returned an IC50 greater than 30 µM.

Compound `O=c1cc(OCCOc2ccccn2)ccn1-c1ccc(F)cc1` [Compound 50, 1-(4-fluorophenyl)-4-(2-(pyridin-2-yloxy)ethoxy)pyridin-2(1H)-one] displayed an IC50 against rat mGlu2 greater than 30 µM. Also, at rat mGlu3, the half-maximal inhibitory concentration (IC50) came to 1.94 µM and the remaining activity at 30 µM was -0.52%.

With `O=c1cc(OCCOc2cnccc2Cl)ccn1-c1ccc(F)cc1` [Compound 47, 4-(2-((4-chloropyridin-3-yl)oxy)ethoxy)-1-(4-fluorophenyl)pyridin-2(1H)-one], the IC50 at rat mGlu2 is greater than 30 µM. At rat mGlu3, the IC50 was greater than 10 µM and the remaining activity at 30 µM stood at 36.7%.

For `O=c1cc(OCCOc2ccccc2)ccn1-c1cncc(F)c1` [Compound 27, 5′-fluoro-4-(2-phenoxyethoxy)-2H-[1,3′-bipyridin]-2-one], the IC50 at rat mGlu2 was greater than 30 µM. At rat mGlu3, the midpoint of inhibition, the IC50, lay at 1.87 µM and the remaining activity at 30 µM came out at 4.56%.

At rat mGlu2, `COCc1ccc(OCCOc2ccn(-c3ccc(F)cc3)c(=O)c2)cc1` [Compound 43, 1-(4-fluorophenyl)-4-(2-(4-(methoxymethyl)phenoxy)ethoxy)pyridin-2(1H)-one] registered an IC50 greater than 30 µM. In addition, at rat mGlu3, the IC50 was greater than 10 µM and the remaining activity at 30 µM worked out at 37.3%.

Regarding `O=c1cc(OCCOc2ncccc2F)ccn1-c1ccc(F)cc1` [Compound 51, 1-(4-fluorophenyl)-4-(2-((3-fluoropyridin-2-yl)oxy)ethoxy)pyridin-2(1H)-one], the half-inhibitory concentration (IC50) on rat mGlu2 was greater than 30 µM. At rat mGlu3, 1.28 µM corresponded to half-maximal inhibition (IC50) and the remaining activity at 30 µM was determined as 0.2%.

Take `O=c1cc(OCCOc2cccc(Cl)c2)ccn1-c1ccc(F)cc1` [Compound 38, 4-(2-(3-chlorophenoxy)ethoxy)-1-(4-fluorophenyl)pyridin-2(1H)-one]: the half-inhibitory concentration (IC50) against rat mGlu2 was greater than 30 µM. At rat mGlu3, the midpoint of inhibition, the IC50, lay at 0.98 µM and the remaining activity at 30 µM is 0.85%.

For the compound `O=c1cc(OCCSc2ccccc2)ccn1-c1ccc(F)cc1` [Compound 3, 1-(4-fluorophenyl)-4-(2-(phenylthio)ethoxy)pyridin-2(1H)-one], the IC50 against rat mGlu2 was greater than 30 µM. On rat mGlu3, 3.89 µM corresponded to half-maximal inhibition (IC50) and the remaining activity at 30 µM was 1.42%.

On rat mGlu2, `O=c1cc(OCCOc2cc(F)ccc2F)ccn1-c1ccc(F)cc1` [Compound 35, 4-(2-(2,5-difluorophenoxy)ethoxy)-1-(4-fluorophenyl)pyridin-2(1H)-one] came in with an IC50 greater than 30 µM. Also, at rat mGlu3, half-maximal inhibition (IC50) required 1.46 µM and the remaining activity at 30 µM worked out at 2.27%.

`O=c1cc(OCC[S+]([O-])c2ccccc2)ccn1-c1ccc(F)cc1` (stereo not drawn) [Compound 8, 1-(4-fluorophenyl)-4-(2-(phenylsulfinyl)ethoxy)pyridin-2(1H)-one] displayed a half-inhibitory concentration (IC50) at rat mGlu3 greater than 30 µM.

Compound `O=c1cc(OCCS(=O)(=O)c2ccccc2)ccn1-c1ccc(F)cc1` [Compound 9, 1-(4-fluorophenyl)-4-(2-(phenylsulfonyl)ethoxy)pyridin-2(1H)-one] showed an IC50 on rat mGlu3 greater than 30 µM.

Consider `O=c1cc(OCCOC2CCCCC2)ccn1-c1ccc(F)cc1` [Compound 7, 4-(2-(cyclohexyloxy)ethoxy)-1-(4-fluorophenyl)pyridin-2(1H)-one], for which, on rat mGlu3, the IC50 was greater than 10 µM and the remaining activity at 30 µM was 15.5%.

By IC50 is commonly meant the point on the concentration scale where inhibition reaches its midpoint. Low values mean greater potency, high ones weaker potency.
